Series [1] deals with Jurkat, U937, Meso-2. The following applies: Tomic-Vatic et al, 2005, cited from earlier work; for pIC50: Jurkat, U937, Meso-2; for pro-apoptotic activity: ester bond replaced by amide bond.
Series [2] relates to mesothelioma. The series is described as follows: Clinical study, patient with mesothelioma. The series is classed as in vivo. The note with it: same patient. As for the experimental part: α-TOS was used to treat mesothelioma in a human cancer patient. […] The blood plasma levels were monitored and levels of α-TOS in the plasma attained 50 μM over prolonged periods during continual application. This is more than sufficient to kill the cancer cells based on in vitro analysis.
The patient was originally receiving high dose opiate medications, neuropathic pain medications, home oxygen, and was predicted to have a life expectancy of 6-8 weeks. After treatment with α-TOS, the patient no longer required analgesia or oxygen.
In December 2005, the patient started receiving transdermal delivery of α-TOS, prepared in a base cream and solubilised with dimethyl sulfoxide (DMSO).
In April 2007, therapy with α-TOS was commenced using a modified formulation mixed in a lipodermal cream (see below). […] In addition, a palpable lesion was visible growing out between the ribs and the right anterior chest wall. The patient was in very poor condition with a low ECOG- no CT scan could be performed at the time of commencing the α-TOS treatment because the patient was too moribund.
α-TOS formulation: 500 gms of Lipoderm cream plus 60 gms α-TOS compounded by the hospital pharmacy. About 30 gms of compounded mix was administered every few days, and the upper body was wrapped in plastic film (“saran wrap”) to improve absorption.

The target in series [3] is T1, α-tocopherol transfer protein (α-TTP) (Rattus norvegicus, UniProt P41034).
T1 sequence (P41034 1-278): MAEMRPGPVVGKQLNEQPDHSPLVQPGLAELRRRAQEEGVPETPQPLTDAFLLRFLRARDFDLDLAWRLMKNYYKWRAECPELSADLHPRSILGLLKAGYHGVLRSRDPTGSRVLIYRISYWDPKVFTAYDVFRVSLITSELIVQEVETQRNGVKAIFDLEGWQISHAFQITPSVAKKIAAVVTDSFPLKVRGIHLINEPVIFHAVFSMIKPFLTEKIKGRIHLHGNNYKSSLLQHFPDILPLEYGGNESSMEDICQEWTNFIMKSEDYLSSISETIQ
The note with it: α-tocopherol 100%; Hosomi et al, 1997; cited from earlier work.

In series [4] the test system is Jurkat, HBT11, MCF7, MCF7-C3. The following applies: Birringer et al, cited from earlier work; for pro-apoptotic activity: compared with α-TOS and isomers; for pIC50: Jurkat, HBT11, MCF7, MCF7-C3, 2003.
Series [5] deals with MCF7. The note with it: cited from earlier work.
Series [6] concerns the target T2, complex II/SDH-dependent activity in NeuTL cells (Mus musculus, UniProt Q8K2B3+Q9CQA3+Q9CXV1+Q9CZB0).
T2 construct: For specifically measuring complex II activity in whole cells; endogenous in cells; host or cells: NeuTL murine breast cancer cells
The series is described as follows: MTT reduction assay of complex II/SDH activity in whole cells. Type of series: cell-based, murine. The note with it: absence of added succinate; 4 h. As for the experimental part:
MTT assay. MTT solutions were prepared immediately before use by dissolving 2.5 mg/ml 3-(4,5-dimethyl[…] (MTT) (Sigma) in PBS alone or phenol red-free RPMI medium containing 20 mM succinic acid, pH 7.4. Stock solutions of 3-nitropropionic acid (3NPA) in ethanol, thenoyltrifluoroacetone (TTFA) in DMSO, 3-BP in PBS, α-TOS in DMSO, and MitoQ (Alleva et al, 2003, James et al, 2005) in ethanol were prepared. The drugs were tested on NeuTL cells cultured in exponential growth phase in 96-well microtitre plates using 4-8 replicate wells per dilution assayed. To assess the ability of MitoQ to restore MTT reduction, cells were pre-incubated for 60 min with 2 or 5 μM MitoQ. Final concentrations of ethanol or DMSO in cultures were ≦0.1%. Treated and control cells were allowed to reduce MTT to blue formazan crystals for 2 or 4 h at 37° C. and 5% CO2. After incubation, culture supernatants were removed except for 30 μl, before the formazan crystals were solubilized by addition of 150 μl DMSO, and absorbance values were measured at 570 nm using a Fluorostar Optima plate reader.
To this end, the present inventors investigated whether α-TOS interferes with UbQ binding in complex II. For specifically measuring complex II activity in whole cells, a short-term (1-2 h) assay was used based on the reduction of the tetrazolium salt, MTT (Maehara et al, 1988). […] For this, oxidative respiration of murine NeuTL breast cancer cells was sustained on high levels of succinate (20 mM), thereby promoting the SDH activity of complex II (Maehara et al, 1988). The cells were then assayed within 1-2 h for their ability to enzymatically reduce MTT, which under conditions of high succinate becomes a specific indicator of complex II/SDH-dependent activity (Maehara et al, 1988, Berridge and Tan, 1993).
Background: Tetrazolium assays rely on reduction of a dye to a coloured formazan, in cell work by metabolically active cells.

Series [7] relates to B16(F10). The following applies: He et al, 1997, cited from earlier work; for pIC50: B16(F10).

pIC50: −log10 of the molar value. Structures can show the parent of a compound that is named as a salt.

T2 sequence (Q8K2B3 43-664): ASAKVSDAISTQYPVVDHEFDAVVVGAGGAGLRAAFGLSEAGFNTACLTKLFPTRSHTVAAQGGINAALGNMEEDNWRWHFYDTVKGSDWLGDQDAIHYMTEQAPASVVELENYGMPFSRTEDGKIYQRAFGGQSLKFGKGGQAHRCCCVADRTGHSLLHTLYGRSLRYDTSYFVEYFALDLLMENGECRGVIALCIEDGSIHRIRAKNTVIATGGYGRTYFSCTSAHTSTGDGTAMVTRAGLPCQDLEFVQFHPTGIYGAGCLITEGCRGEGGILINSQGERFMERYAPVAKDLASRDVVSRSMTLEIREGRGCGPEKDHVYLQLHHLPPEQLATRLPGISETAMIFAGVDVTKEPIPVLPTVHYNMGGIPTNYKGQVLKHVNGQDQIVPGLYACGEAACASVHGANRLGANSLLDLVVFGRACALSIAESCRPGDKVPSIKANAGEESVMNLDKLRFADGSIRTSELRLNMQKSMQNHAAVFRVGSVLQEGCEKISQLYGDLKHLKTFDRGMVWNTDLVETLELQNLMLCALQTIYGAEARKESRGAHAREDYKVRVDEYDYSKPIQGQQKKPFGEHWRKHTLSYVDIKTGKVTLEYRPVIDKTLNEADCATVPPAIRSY
T2 sequence (Q9CQA3 31-282): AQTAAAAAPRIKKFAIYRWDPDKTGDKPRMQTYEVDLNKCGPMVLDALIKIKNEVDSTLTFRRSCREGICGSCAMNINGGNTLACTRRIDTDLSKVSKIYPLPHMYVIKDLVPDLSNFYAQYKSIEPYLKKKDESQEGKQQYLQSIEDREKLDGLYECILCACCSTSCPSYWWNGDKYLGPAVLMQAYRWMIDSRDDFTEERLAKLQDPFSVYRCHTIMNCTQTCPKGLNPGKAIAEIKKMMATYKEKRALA
T2 sequence (Q9CZB0 30-169): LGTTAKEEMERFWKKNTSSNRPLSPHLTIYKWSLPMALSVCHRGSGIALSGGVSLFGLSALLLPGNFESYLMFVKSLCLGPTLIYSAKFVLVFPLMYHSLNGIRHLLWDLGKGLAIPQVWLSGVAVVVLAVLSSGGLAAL
T2 sequence (Q9CXV1 57-159): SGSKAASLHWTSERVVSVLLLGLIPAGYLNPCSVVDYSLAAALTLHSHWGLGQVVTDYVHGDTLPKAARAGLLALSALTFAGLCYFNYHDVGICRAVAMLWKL

`Cc1c(C)c2c(c(C)c1NC(=O)CCC(=O)O)CCC(C)(CCCC(C)CCCC(C)CCCC(C)C)O2` (stereo not shown) [Compound 12]: in series [1], the pIC50 was 4.89 and the “pro-apoptotic activity” value is listed as “further enhancement of pro-apoptotic activity”.
As to `Nc1ccn([C@@H]2O[C@H](CO)[C@@H](O)C2(F)F)c(=O)n1` [Gemcitabine, reference compound], the “toxicity of other therapies (medical history)” value (shortened to “toxicity of other therapies”) in series [2] is given as “unacceptable levels of toxicity”.
With `Cc1cc(O)cc2c1O[C@](C)(CCC[C@H](C)CCC[C@H](C)CCCC(C)C)CC2` [δ-tocopherol], in series [3], the “relative affinities for α-TTP” value is 2%.
On to `Cc1c(C)c2c(c(C)c1OC(=O)CCCC(=O)O)CCC(C)(CCCC(C)CCCC(C)CCCC(C)C)O2` (stereo not shown) [Compound 5], for which the “pro-apoptotic activity” value in series [4] is “decreased activity”.
As for `Cc1c(C)c2c(c(C)c1NC(=O)C=CC(=O)O)CCC(C)(CCCC(C)CCCC(C)CCCC(C)C)O2` (stereo not shown) [Compound 13], in series [1], the pIC50 is 5.70 and the “pro-apoptotic activity” value is on record as “further enhancement of pro-apoptotic activity”.
With `Cc1c(C)c2c(c(C)c1CC(=O)O)CCC(C)(CCCC(C)CCCC(C)CCCC(C)C)O2` (stereo not shown) [Compound 22], the “EC50 [μg/ml]” value in series [5] (Shiau et al, 2006, footnote g) is given as 15-20^g μg/ml.
For the compound `Cc1cc(NC(=O)C=CC(=O)O)cc2c1OC(C)(CCCC(C)CCCC(C)CCCC(C)C)CC2` (stereo not shown) [Compound 38], in series [1], the pIC50 is 5.05 and the “pro-apoptotic activity” value is listed as “further enhancement of pro-apoptotic activity”.
On to `Cc1c(C)c2c(c(C)c1OC(=O)CC(C)CC(=O)O)CCC(C)(CCCC(C)CCCC(C)CCCC(C)C)O2` (stereo not shown) [Compound 6], for which the “pro-apoptotic activity” value in series [4] is recorded as “decreased activity”.
On to `O=C(O)CC[N+](=O)[O-]` [Compound 3NPA, 3-nitropropionic acid], for which the “complex II-mediated MTT reduction” value in series [6] was “potent inhibitors of the complex II-mediated MTT reduction”.
Regarding `Cc1c(C)c2c(c(C)c1OC(=O)C(N)CCCCN)CCC(C)(CCCC(C)CCCC(C)CCCC(C)C)O2` (stereo not shown) [Compound 16], the pIC50 in series [5] was 4.92.
Take `CC(C)=CCC/C(C)=C/CC/C(C)=C/CCC1(C)CCc2cc(O)ccc2O1` (stereo not shown) [Compound 60, desmethyl tocotrienol]: the pIC50 in series [7] is 6.05.
With `Cc1cc(O)c(C)c2c1O[C@](C)(CCC[C@H](C)CCC[C@H](C)CCCC(C)C)CC2` [β-tocopherol], in series [3], the “relative affinities for α-TTP” value is given as 38%.
`CC(C)=CCC/C(C)=C/CC/C(C)=C/CC[C@]1(C)CCc2cc(O)cc(C)c2O1` [Compound 59, δ-tocotrienol]: in series [7], the pIC50 was 5.00 and the “potency in the murine B16-F10 melanoma cell model” value is reported as “most potent agent”.
In the case of `CCCCCOCC1(C)CCc2c(C)c(OC(=O)C(N)CCCCN)c(C)c(C)c2O1` (stereo not shown) [Compound 48], the pIC50 in series [5] is 4.66.
Take `Cc1cc(OC(=O)CCC(=O)O)cc2c1OC(C)(CCCC(C)CCCC(C)CCCC(C)C)CC2` (stereo not shown) [Compound 35]: in series [4], the “pro-apoptotic activity” value is on record as “least effective” and the pIC50 was 4.18.
In the case of `Cc1c(C)c2c(c(C)c1O)CC[C@@](C)(CCC[C@H](C)CCC[C@H](C)CCCC(C)C)O2` [α-tocopherol], the “relative affinities for α-TTP” value in series [3] is on record as 100%.
On to `CCC1=C[C@@H]2CN(C1)Cc1c([nH]c3ccccc13)[C@@](C(=O)OC)(c1cc3c(cc1OC)N(C)[C@H]1[C@@](O)(C(=O)OC)[C@H](OC(C)=O)[C@]4(CC)C=CCN5CC[C@]31[C@@H]54)C2` [Vinorelbine, reference compound], for which, in series [2], the “toxicity of other therapies” value was “severe exacerbation of peripheral neuropathy”.
Turning to `COC(=O)CCC(=O)Oc1c(C)c(C)c2c(c1C)CCC(C)(CCCC(C)CCCC(C)CCCC(C)C)O2` (stereo not shown) [Compound 9], the “pro-apoptotic activity” value in series [4] is reported as “without pro-apoptotic activity”.
Take `Cc1c(C)c2c(c(C)c1OC(=O)C(N)CCCCN)CCC(C)(CO)O2` (stereo not shown) [Compound 47]: the pIC50 in series [5] was 3.71.
`Oc1ccc(C2=Cc3ccc(O)cc3OC2)cc1` [phenoxodiol, reference compound]: the “toxicity of other therapies” value in series [2] is recorded as “ongoing severe neuropathy”.
For `Cc1c(C)c2c(c(C)c1OC(=O)C=CC(=O)O)CCC(C)(CCCC(C)CCCC(C)CCCC(C)C)O2` (stereo not drawn) [Compound 3, α-tocopheryl maleate], in series [4], the “pro-apoptotic activity” value is “Even greater pro-apoptotic activity” and the pIC50 is 4.66.
As to `COC(=O)CCC(=O)Nc1c(C)c(C)c2c(c1C)CCC(C)(CCCC(C)CCCC(C)CCCC(C)C)O2` (stereo not shown) [Compound 14], the pIC50 in series [1] was under 4.00.
As for `Cc1cc(NC(=O)CCC(=O)O)cc2c1OC(C)(CCCC(C)CCCC(C)CCCC(C)C)CC2` (stereo not shown) [Compound 37], in series [1], the pIC50 was 4.70 and the “pro-apoptotic activity” value was “further enhancement of pro-apoptotic activity”.
As for `Cc1c(C)c2c(c(C)c1OC(=O)CC(C)(C)CC(=O)O)CCC(C)(CCCC(C)CCCC(C)CCCC(C)C)O2` (stereo not shown) [Compound 7], the “pro-apoptotic activity” value in series [4] is “decreased activity”.
Consider `Cc1cc(OC(=O)C=CC(=O)O)cc2c1OC(C)(CCCC(C)CCCC(C)CCCC(C)C)CC2` (stereo not shown) [Compound 36], for which the pIC50 in series [1] is 4.31.
As to `CCCCC(=O)OCC1(C)CCc2c(C)c(OC(=O)C(N)CCCCN)c(C)c(C)c2O1` (stereo not shown) [Compound 49], the pIC50 in series [5] is 4.82.
Take `Cc1c(O)cc2c(c1C)O[C@](C)(CCC[C@H](C)CCC[C@H](C)CCCC(C)C)CC2` [γ-tocopherol]: the “relative affinities for α-TTP” value in series [3] is given as 9%.

Broadly, the pIC50 is the IC50 on a negative log10 scale, so that one unit is a factor of ten.
